From patent publication EP0035412A1, “Amidotetrazole compounds and processes for their preparation” (GLAXO GROUP LIMITED, priority 1980, dated 1981)

Experiments:
Format in all cases: in vivo
[1] = tested on: rats with adjuvant arthritis; experiment: Freund adjuvant arthritis test (anti-inflammatory activity); conditions: arthritic score versus first score, suspended in gum acacia
Protocol: The anti-inflammatory activity was determined by the Freund adjuvant arthritis test (Pearson, C.M. Proc. Soc. Exp. Biol. Med 91, 95 1956) and analgesic activity was determined by applying an increasing pressure to the inflamed paw (Randall, L.O. Selitto, J.J., Arch. Int. Pharmacodyn, 111, 409 1957) and recording pain threshold.
The anti-inflammatory activity of the compounds was determined in rats with adjuvant arthritis (Pearson, C.M. Prod. Soc. Exp. Biol. Med., 91, 95, 1956) induced by intradermal,injection into the tail of 0.1 ml of a fine suspension of Mycobacterium butyricum in liquid paraffin (6 mg.ml^-1).
After 14 days, animals were chosen on the basis of their arthritic score and test compounds, suspended in gum acacia, were then orally administered once a day for 14 days. At the end of this period, animals were scored again and percentage inhibition versus first score was calculated. Comparisons with controls were performed by the Dunnett test. The following results were obtained for the compounds of the Examples: […]

Toxicity (oral LD50) = conditions: in vivo, po; rat, orally
Protocol: (§1) The compounds are in general non-toxic at therapeutically active doses. For example, the compound of Example 1 has an LD50 value in the rat in excess of 3000 mg.kg ^-1 orally.

rat = experiment: Toxicity (oral LD50); conditions: result in words
Protocol: as §1

[2] = oral dose 50.0 mg.kg^-1 once a day for 14 days

COc1ccc2c(c1)c(CC(=O)Nc1nnnn1-c1ccc(N)cc1)c(C)n2C(=O)c1ccc(Cl)cc1 [Example 4]
% Inhibition [1, 2]: 44.8%

COc1ccc2c(c1)c(CC(=O)Nc1nnnn1-c1ccc(Cl)c(Cl)c1)c(C)n2C(=O)c1ccc(Cl)cc1 [Example 2, 1-(3,4-Dichlorophenyl)-5-[1-(4-chlorobenzoyl)-5-methoxy-2-methylindol-3-ylacetamido]tetrazole]
% Inhibition [1, 2]: 40.3%

COc1ccc2c(c1)c(CC(=O)Nc1nnnn1-c1ccc([N+](=O)[O-])cc1)c(C)n2C(=O)c1ccc(Cl)cc1 [Example 3, 1-(4-Nitrophenyl)-5-[1-(4-chlorobenzoyl)-5-methoxy-2-methylindol-3-ylacetamido] tetrazole]
% Inhibition ([1]; oral dose 10.0 mg.kg^-1 once a day for 14 days): 47.7%

COc1ccc2c(c1)c(CC(=O)Nc1nnnn1-c1ccccc1)c(C)n2C(=O)c1ccc(Cl)cc1 [Example 1, 1-Phenyl-5-[1-(4-chlorobenzoyl)-5-methoxy-2-methylindol-3-ylacetamido]tetrazole]
% Inhibition ([1]; oral dose 6.25 mg.kg^-1 once a day for 14 days): 59%
LD50 (Toxicity (oral LD50)): > 3000 mg/kg
therapeutic index (rat): particularly advantageous
